Measured values reported in ChEMBL document CHEMBL5230144, “Synthesis and Biological Evaluation of Celastrol Derivatives with Improved Cytotoxic Selectivity and Antitumor Activities” (J Nat Prod, 2021).

Key:
MDA-MB-231 = test: cells; conditions: Homo sapiens, MDA-MB-231, 48 h
Description: Antiproliferative activity against human MDA-MB-231 cells assessed as inhibition of cell proliferation measured after 48 hrs by MTT assay

[1] = Cytotoxicity against human mesenchymal bone marrow stem cells measured after 48 hrs by MTT assay; assay type: toxicity, cell-based

Compound	IC50 (MDA-MB-231) [µM]	IC50 at 48 h [1] [µM]
C#CCOC(=O)[C@]1(C)CC[C@]2(C)CC[C@]3(C)C4=CC=C5C(=CC(=O)C(OC(=O)N(CC)CC)=C5C)[C@]4(C)CC[C@@]3(C)[C@@H]2C1	0.3	3.2
C#CCOC(=O)[C@]1(C)CC[C@]2(C)CC[C@]3(C)C4=CC=C5C(=CC(=O)C(OC(=O)N(C)C)=C5C)[C@]4(C)CC[C@@]3(C)[C@@H]2C1	0.2	2
C#CCOC(=O)[C@]1(C)CC[C@]2(C)CC[C@]3(C)C4=CC=C5C(=CC(=O)C(OC(=O)N(CCCC)CCCC)=C5C)[C@]4(C)CC[C@@]3(C)[C@@H]2C1	0.1	1.2
C#CCOC(=O)[C@]1(C)CC[C@]2(C)CC[C@]3(C)C4=CC=C5C(=CC(=O)C(OC(=O)/C=C/c6ccccc6F)=C5C)[C@]4(C)CC[C@@]3(C)[C@@H]2C1	0.3	1.4
C#CCOC(=O)[C@]1(C)CC[C@]2(C)CC[C@]3(C)C4=CC=C5C(=CC(=O)C(OC(=O)/C=C/c6ccccc6)=C5C)[C@]4(C)CC[C@@]3(C)[C@@H]2C1	0.5	2.8
C#CCOC(=O)[C@]1(C)CC[C@]2(C)CC[C@]3(C)C4=CC=C5C(=CC(=O)C(OC(=O)N(c6ccccc6)c6ccccc6)=C5C)[C@]4(C)CC[C@@]3(C)[C@@H]2C1	0.2	3.1
C#CCOC(=O)[C@]1(C)CC[C@]2(C)CC[C@]3(C)C4=CC=C5C(=CC(=O)C(OC(=O)N6c7ccccc7Sc7ccccc76)=C5C)[C@]4(C)CC[C@@]3(C)[C@@H]2C1	0.2	2.9
C#CCOC(=O)[C@]1(C)CC[C@]2(C)CC[C@]3(C)C4=CC=C5C(=CC(=O)C(OC(=O)N6CCN(c7cccc(OC)c7)CC6)=C5C)[C@]4(C)CC[C@@]3(C)[C@@H]2C1	0.3	1.8
C#CCOC(=O)[C@]1(C)CC[C@]2(C)CC[C@]3(C)C4=CC=C5C(=CC(=O)C(OC(=O)N6CCCC6)=C5C)[C@]4(C)CC[C@@]3(C)[C@@H]2C1	0.2	2.7
C#CCOC(=O)[C@]1(C)CC[C@]2(C)CC[C@]3(C)C4=CC=C5C(=CC(=O)C(OC(=O)N6c7ccccc7C=Cc7ccccc76)=C5C)[C@]4(C)CC[C@@]3(C)[C@@H]2C1	0.2	2.2
C#CCOC(=O)[C@]1(C)CC[C@]2(C)CC[C@]3(C)C4=CC=C5C(=CC(=O)C(OC(=O)/C=C/c6cccc(Cl)c6)=C5C)[C@]4(C)CC[C@@]3(C)[C@@H]2C1	0.3	2
C#CCOC(=O)[C@]1(C)CC[C@]2(C)CC[C@]3(C)C4=CC=C5C(=CC(=O)C(OC(C)=O)=C5C)[C@]4(C)CC[C@@]3(C)[C@@H]2C1	0.5	2.4
C#CCOC(=O)[C@]1(C)CC[C@]2(C)CC[C@]3(C)C4=CC=C5C(=CC(=O)C(OC(=O)N6CCN(c7ccccc7)CC6)=C5C)[C@]4(C)CC[C@@]3(C)[C@@H]2C1	0.2	1.8
C#CCOC(=O)[C@]1(C)CC[C@]2(C)CC[C@]3(C)C4=CC=C5C(=CC(=O)C(OC(=O)C=C)=C5C)[C@]4(C)CC[C@@]3(C)[C@@H]2C1	0.7	3.7
C#CCOC(=O)[C@]1(C)CC[C@]2(C)CC[C@]3(C)C4=CC=C5C(=CC(=O)C(OC(=O)N6c7ccccc7CCc7ccccc76)=C5C)[C@]4(C)CC[C@@]3(C)[C@@H]2C1	0.3	1
C#CCOC(=O)[C@]1(C)CC[C@]2(C)CC[C@]3(C)C4=CC=C5C(=CC(=O)C(OC(=O)C(=C)C)=C5C)[C@]4(C)CC[C@@]3(C)[C@@H]2C1	0.4	2.4
C#CCOC(=O)[C@]1(C)CC[C@]2(C)CC[C@]3(C)C4=CC=C5C(=CC(=O)C(OC(=O)N6CCN(C)CC6)=C5C)[C@]4(C)CC[C@@]3(C)[C@@H]2C1	0.3	2
C#CCOC(=O)[C@]1(C)CC[C@]2(C)CC[C@]3(C)C4=CC=C5C(=CC(=O)C(OC(=O)N6CCCCC6)=C5C)[C@]4(C)CC[C@@]3(C)[C@@H]2C1	0.1	2.4
